Source: ChEMBL document CHEMBL5724914, “Linking interpersonal differences in gut microbiota composition and drug biotransformation activity” (2024)

Key:
[1] = The drug is tested on Z-012 corresponding to metagenome with ENA study accession number: PRJEB37062 and ENA sample accession number: ERS12561812 for biotransformation under anaerobic condition. The drug concentrations were measured over 9 timepoints collected between 0 and 24 hours of incubation by liquid-chromatography-coupled mass spectrometry (LC–MS); conditions: 2 µM
[2] = The drug is tested on Z-018 corresponding to pig gut metagenome with ENA study accession number: PRJEB37062 and ENA sample accession number: ERS12561817 for biotransformation under anaerobic condition. The drug concentrations were measured over 9 timepoints collected between 0 and 24 hours of incubation by liquid-chromatography-coupled mass spectrometry (LC–MS); conditions: 2 µM
[3] = The drug is tested on WLS-069 corresponding to human gut metagenome with ENA study accession number: PRJEB37062 and ENA sample accession number: ERS12561748 for biotransformation under anaerobic condition. The drug concentrations were measured over 9 timepoints collected between 0 and 24 hours of incubation by liquid-chromatography-coupled mass spectrometry (LC–MS); conditions: 2 µM
[4] = human gut metagenome, 24 h, 2 µM
[5] = The drug is tested on Z-029 corresponding to rat gut metagenome with ENA study accession number: PRJEB37062 and ENA sample accession number: ERS12561828 for biotransformation under anaerobic condition. The drug concentrations were measured over 9 timepoints collected between 0 and 24 hours of incubation by liquid-chromatography-coupled mass spectrometry (LC–MS); conditions: 2 µM
[6] = The drug is tested on Z-024 corresponding to pig gut metagenome with ENA study accession number: PRJEB37062 and ENA sample accession number: ERS12561823 for biotransformation under anaerobic condition. The drug concentrations were measured over 9 timepoints collected between 0 and 24 hours of incubation by liquid-chromatography-coupled mass spectrometry (LC–MS); conditions: 2 µM
[7] = human gut metagenome, 24 h, 2 µM; remark: listed apart in the source
[8] = human gut metagenome, 24 h, 2 µM; remark: listed apart in the source
[9] = The drug is tested on Z-020 corresponding to rabbit gut metagenome with ENA study accession number: PRJEB37062 and ENA sample accession number: ERS12561819 for biotransformation under anaerobic condition. The drug concentrations were measured over 9 timepoints collected between 0 and 24 hours of incubation by liquid-chromatography-coupled mass spectrometry (LC–MS); conditions: 2 µM
[10] = human gut metagenome, 24 h, 2 µM; remark: listed apart in the source
[11] = The drug is tested on WLS-052 corresponding to human gut metagenome with ENA study accession number: PRJEB37062 and ENA sample accession number: ERS12561747 for biotransformation under anaerobic condition. The drug concentrations were measured over 9 timepoints collected between 0 and 24 hours of incubation by liquid-chromatography-coupled mass spectrometry (LC–MS); conditions: 2 µM
[12] = human gut metagenome, 24 h, 2 µM; remark: listed apart in the source
[13] = The drug is tested on WLS-010 corresponding to human gut metagenome with ENA study accession number: PRJEB37062 and ENA sample accession number: ERS12561743 for biotransformation under anaerobic condition. The drug concentrations were measured over 9 timepoints collected between 0 and 24 hours of incubation by liquid-chromatography-coupled mass spectrometry (LC–MS); conditions: 2 µM
[14] = human gut metagenome, 24 h, 2 µM; remark: listed apart in the source
[15] = The drug is tested on Z-028 corresponding to mouse gut metagenome with ENA study accession number: PRJEB37062 and ENA sample accession number: ERS12561827 for biotransformation under anaerobic condition. The drug concentrations were measured over 9 timepoints collected between 0 and 24 hours of incubation by liquid-chromatography-coupled mass spectrometry (LC–MS); conditions: 2 µM
[16] = human gut metagenome, 24 h, 2 µM; remark: listed apart in the source
[17] = The drug is tested on Z-011 corresponding to mouse gut metagenome with ENA study accession number: PRJEB37062 and ENA sample accession number: ERS12561811 for biotransformation under anaerobic condition. The drug concentrations were measured over 9 timepoints collected between 0 and 24 hours of incubation by liquid-chromatography-coupled mass spectrometry (LC–MS); conditions: 2 µM
[18] = The drug is tested on Z-001 corresponding to mouse gut metagenome with ENA study accession number: PRJEB37062 and ENA sample accession number: ERS12561801 for biotransformation under anaerobic condition. The drug concentrations were measured over 9 timepoints collected between 0 and 24 hours of incubation by liquid-chromatography-coupled mass spectrometry (LC–MS); conditions: 2 µM
[19] = The drug is tested on WLS-220 corresponding to human gut metagenome with ENA study accession number: PRJEB37062 and ENA sample accession number: ERS12561769 for biotransformation under anaerobic condition. The drug concentrations were measured over 9 timepoints collected between 0 and 24 hours of incubation by liquid-chromatography-coupled mass spectrometry (LC–MS); conditions: 2 µM
[20] = The drug is tested on WLS-082 corresponding to human gut metagenome with ENA study accession number: PRJEB37062 and ENA sample accession number: ERS12561751 for biotransformation under anaerobic condition. The drug concentrations were measured over 9 timepoints collected between 0 and 24 hours of incubation by liquid-chromatography-coupled mass spectrometry (LC–MS); conditions: 2 µM
Further: call rule not given here.

SMILES: CCCC1O[C@@H]2C[C@H]3[C@@H]4CCC5=CC(=O)C=C[C@]5(C)[C@H]4[C@@H](O)C[C@]3(C)[C@]2(C(=O)CO)O1 (stereo not given in full) [BUDESONIDE]
- Bacterial Biotransformation [1]: Compound metabolized
- Bacterial Biotransformation [2]: Compound metabolized
- Bacterial Biotransformation [3]: Compound metabolized
- Bacterial Biotransformation [4]: Compound metabolized
- Bacterial Biotransformation [5]: Compound NOT metabolized
- Bacterial Biotransformation [6]: Compound metabolized
- Bacterial Biotransformation [7]: Compound metabolized
- Bacterial Biotransformation [8]: Compound metabolized
- Bacterial Biotransformation [9]: Compound NOT metabolized
- Bacterial Biotransformation [10]: Compound metabolized
- Bacterial Biotransformation [11]: Compound metabolized
- Bacterial Biotransformation [12]: Compound metabolized
- Bacterial Biotransformation [13]: Compound metabolized
- Bacterial Biotransformation [14]: Compound metabolized
- Bacterial Biotransformation [15]: Compound metabolized
- Bacterial Biotransformation [16]: Compound metabolized
- Bacterial Biotransformation [17]: Compound metabolized
- Bacterial Biotransformation [18]: Compound NOT metabolized
- Bacterial Biotransformation [19]: Compound metabolized

SMILES: C[C@@H]1C[C@H]2[C@@H]3CCC4=CC(=O)C=C[C@]4(C)[C@@]3(F)[C@@H](O)C[C@]2(C)[C@@]1(O)C(=O)CO [DEXAMETHASONE]
- Bacterial Biotransformation [1]: Compound metabolized
- Bacterial Biotransformation [2]: Compound metabolized
- Bacterial Biotransformation [3]: Compound NOT metabolized
- Bacterial Biotransformation [4]: Compound NOT metabolized
- Bacterial Biotransformation [5]: Compound NOT metabolized
- Bacterial Biotransformation [6]: Compound metabolized
- Bacterial Biotransformation [7]: Compound NOT metabolized
- Bacterial Biotransformation [8]: Compound NOT metabolized
- Bacterial Biotransformation [9]: Compound metabolized
- Bacterial Biotransformation [10]: Compound NOT metabolized
- Bacterial Biotransformation [11]: Compound NOT metabolized
- Bacterial Biotransformation [12]: Compound NOT metabolized
- Bacterial Biotransformation [13]: Compound metabolized
- Bacterial Biotransformation [14]: Compound NOT metabolized
- Bacterial Biotransformation [15]: Compound NOT metabolized
- Bacterial Biotransformation [16]: Compound NOT metabolized
- Bacterial Biotransformation [17]: Compound NOT metabolized
- Bacterial Biotransformation [18]: Compound NOT metabolized
- Bacterial Biotransformation [19]: Compound NOT metabolized

SMILES: O=c1[nH]c2ccccc2n1CCCN1CCC(n2c(=O)[nH]c3cc(Cl)ccc32)CC1 [DOMPERIDONE]
- Bacterial Biotransformation [1]: Compound NOT metabolized
- Bacterial Biotransformation [2]: Compound NOT metabolized
- Bacterial Biotransformation [3]: Compound NOT metabolized
- Bacterial Biotransformation [4]: Compound NOT metabolized
- Bacterial Biotransformation [5]: Compound NOT metabolized
- Bacterial Biotransformation [6]: Compound NOT metabolized
- Bacterial Biotransformation [9]: Compound NOT metabolized
- Bacterial Biotransformation [10]: Compound NOT metabolized
- Bacterial Biotransformation [11]: Compound NOT metabolized
- Bacterial Biotransformation [20]: Compound NOT metabolized
- Bacterial Biotransformation [15]: Compound NOT metabolized
- Bacterial Biotransformation [16]: Compound NOT metabolized
- Bacterial Biotransformation [17]: Compound NOT metabolized
- Bacterial Biotransformation [18]: Compound NOT metabolized
- Bacterial Biotransformation [19]: Compound NOT metabolized

SMILES: C=CCN1CC[C@]23c4c5ccc(O)c4O[C@H]2C(=O)CC[C@@]3(O)[C@H]1C5 [NALOXONE]
- Bacterial Biotransformation [1]: Compound NOT metabolized
- Bacterial Biotransformation [2]: Compound NOT metabolized
- Bacterial Biotransformation [3]: Compound NOT metabolized
- Bacterial Biotransformation [4]: Compound NOT metabolized
- Bacterial Biotransformation [5]: Compound NOT metabolized
- Bacterial Biotransformation [6]: Compound NOT metabolized
- Bacterial Biotransformation [7]: Compound NOT metabolized
- Bacterial Biotransformation [8]: Compound NOT metabolized
- Bacterial Biotransformation [9]: Compound NOT metabolized
- Bacterial Biotransformation [10]: Compound NOT metabolized
- Bacterial Biotransformation [11]: Compound NOT metabolized
- Bacterial Biotransformation [12]: Compound NOT metabolized
- Bacterial Biotransformation [20]: Compound NOT metabolized
- Bacterial Biotransformation [14]: Compound NOT metabolized
- Bacterial Biotransformation [15]: Compound NOT metabolized
- Bacterial Biotransformation [16]: Compound NOT metabolized
- Bacterial Biotransformation [17]: Compound NOT metabolized
- Bacterial Biotransformation [18]: Compound metabolized
- Bacterial Biotransformation [19]: Compound NOT metabolized

SMILES: CCCc1nc(C(C)(C)O)c(C(=O)OCc2oc(=O)oc2C)n1Cc1ccc(-c2ccccc2-c2nnn[nH]2)cc1 [OLMESARTAN MEDOXOMIL]
- Bacterial Biotransformation [1]: Compound metabolized
- Bacterial Biotransformation [2]: Compound metabolized
- Bacterial Biotransformation [3]: Compound metabolized
- Bacterial Biotransformation [4]: Compound NOT metabolized
- Bacterial Biotransformation [5]: Compound NOT metabolized
- Bacterial Biotransformation [6]: Compound metabolized
- Bacterial Biotransformation [7]: Compound NOT metabolized
- Bacterial Biotransformation [8]: Compound metabolized
- Bacterial Biotransformation [9]: Compound metabolized
- Bacterial Biotransformation [10]: Compound metabolized
- Bacterial Biotransformation [11]: Compound metabolized
- Bacterial Biotransformation [12]: Compound metabolized
- Bacterial Biotransformation [20]: Compound metabolized
- Bacterial Biotransformation [14]: Compound metabolized
- Bacterial Biotransformation [15]: Compound NOT metabolized
- Bacterial Biotransformation [16]: Compound metabolized
- Bacterial Biotransformation [17]: Compound NOT metabolized
- Bacterial Biotransformation [18]: Compound metabolized
- Bacterial Biotransformation [19]: Compound metabolized

SMILES: NC(=O)N1c2ccccc2CC(=O)c2ccccc21 [OXCARBAZEPINE]
- Bacterial Biotransformation [1]: Compound NOT metabolized
- Bacterial Biotransformation [2]: Compound metabolized
- Bacterial Biotransformation [3]: Compound NOT metabolized
- Bacterial Biotransformation [4]: Compound NOT metabolized
- Bacterial Biotransformation [5]: Compound NOT metabolized
- Bacterial Biotransformation [6]: Compound metabolized
- Bacterial Biotransformation [7]: Compound NOT metabolized
- Bacterial Biotransformation [8]: Compound NOT metabolized
- Bacterial Biotransformation [9]: Compound NOT metabolized
- Bacterial Biotransformation [10]: Compound NOT metabolized
- Bacterial Biotransformation [11]: Compound NOT metabolized
- Bacterial Biotransformation [12]: Compound NOT metabolized
- Bacterial Biotransformation [20]: Compound NOT metabolized
- Bacterial Biotransformation [14]: Compound NOT metabolized
- Bacterial Biotransformation [15]: Compound NOT metabolized
- Bacterial Biotransformation [16]: Compound NOT metabolized
- Bacterial Biotransformation [17]: Compound NOT metabolized
- Bacterial Biotransformation [18]: Compound NOT metabolized
- Bacterial Biotransformation [19]: Compound NOT metabolized
